From patent publication US6482810B1, “Antibiotic composition for inhibition of angiogenesis” (priority 1991, dated 2002)
Where two headings read alike, the source gives them in different places.

Columns and labels:
[1] = test system: angiogenesis in the cornea; experiment: Drug-containing polymers implanted alone in the cornea; details: polymer without tumor in the cornea
[2] = test system: tumor-induced angiogenesis (VX2 carcinoma) in the rabbit cornea; experiment: Rabbit cornea angiogenesis assay with VX2 carcinoma and controlled release polymers; details: for factor of decrease of tumor-induced angiogenesis: versus empty polymer
[3] = test system: angiogenesis in the cornea; details: rabbit, in vivo

| angiogenesis induced by polymer implanted alone [3] | Compound | angiogenesis induced by polymer implanted alone [1] | inhibition of tumor angiogenesis (angiogenesis index) ([2]; controlled release from EVAc polymer, 7, 14 and 21 days, P<0.05) | factor of decrease of tumor-induced angiogenesis ([2]; 7 days after implantation) | factor of decrease of tumor-induced angiogenesis ([2]; 14 days after implantation) | factor of decrease of tumor-induced angiogenesis ([2]; 21 days after implantation) |
| --- | --- | --- | --- | --- | --- | --- |
|  | heparin | promote a mild angiogenic response |  |  |  |  |
| did not induce angiogenesis | CC(=O)OCC(=O)[C@@]1(O)CC[C@H]2[C@@H]3CCC4=CC(=O)CC[C@]4(C)[C@H]3C(=O)C[C@@]21C [cortisone, cortisone acetate] |  | significantly inhibited |  |  |  |
|  | CN(C)c1ccc(O)c2c1C[C@H]1C[C@H]3[C@H](N(C)C)C(O)=C(C(N)=O)C(=O)[C@@]3(O)C(O)=C1C2=O [minocycline] | did not induce angiogenesis |  | 4.5 | 4.4 | 2.9 |
